For two compounds, buffer properties and electrical conductivity results are on record in patent US20150105471A1, “PARACETAMOL FOR PARENTERAL ADMINISTRATION” (Fresenius Kabi Deutschland GmbH, priority 2009, published 2015).

The nature of series [1]: buffer properties of cysteine. It is filed as physicochemical. As to conditions: pH 5.5 to 7. From the text:
In a preferred embodiment, the composition according to the invention, preferably an infusion solution, contains cysteine, if appropriate additionally to mannitol.

The nature of series [2]: electrical conductivity of aqueous paracetamol solutions. It is filed as physicochemical. How it is done: The composition according to the invention, preferably an infusion solution, has an electrical conductivity of at most 200 μS cm^−1. The measurement of the electrical conductivity of aqueous solutions is known to the person skilled in the art and suitable measuring apparatuses are obtainable commercially. The electrical conductivity is preferably measured at room temperature. […]
Aqueous solutions of paracetamol and further ingredients were prepared. The electrical conductivity of the solutions was measured and the storage stability of paracetamol was determined by means of the formation of degradation products (for the formation of the dimer cf., for example, D. W. Pottert et al, J Biol Chem, 1985, […], 12174-80; W. Clegg et al., Acta Crystallographica, 1998, C54, 1881-2).

With `N[C@@H](CS)C(=O)O` [cysteine], the buffer properties entry in series [1] is “no buffer properties at all”.
In the case of `CC(=O)Nc1ccc(O)cc1` [paracetamol], the electrical conductivity result in series [2] (10 g of paracetamol in 1000 ml of water) is “about 4 μS/cm”; in series [2] (10 g of paracetamol in 1000 ml of water plus 100 mg of NaCl (0.01% by weight of NaCl)), “about 200 μS/cm”.
